Test results taken from ChEMBL document CHEMBL1201862, “PubChem BioAssay data set” (2004).
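A five-concentration, 48-hour dose response in 96-well plates underlies each endpoint, interpolated linearly between surrounding concentrations. Abbreviation: GI50, concentration required for 50% inhibition of growth.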 Activity calls are given as the source filed them. Cut-off read from the data, not from the text of the source: active = GI50 up to about 1.1 µM and inactive = higher.

Legend:
Test in all cases: NCI-60 cell line screen, 48 h
HCT-15 = system: HCT-15
PC-3 = system: PC-3
OVCAR-4 = system: OVCAR-4
RXF 393 = system: RXF 393
OVCAR-5 = system: OVCAR-5
NCI-H226 = system: NCI-H226
M14 = system: M14
HCT-116 = system: HCT-116
OVCAR-8 = system: OVCAR-8
UACC-257 = system: UACC-257
SK-MEL-5 = system: SK-MEL-5
DU-145 = system: DU-145
UO-31 = system: UO-31
SF-268 = system: SF-268
LOX IMVI = system: LOX IMVI
SN12C = system: SN12C
OVCAR-3 = system: OVCAR-3
MDA-MB-435 = system: MDA-MB-435
A498 = system: A498
NCI-H23 = system: NCI-H23
A549 = system: A549
TK-10 = system: TK-10
NCI/ADR-RES = system: NCI/ADR-RES
T47D = system: T47D
HT-29 = system: HT-29
CAKI-1 = system: CAKI-1
SK-OV-3 = system: SK-OV-3
HCC 2998 = system: HCC 2998
HOP-92 = system: HOP-92
MOLT-4 = system: MOLT-4
MCF7 = system: MCF7
SNB-75 = system: SNB-75
U-251 = system: U-251
SK-MEL-2 = system: SK-MEL-2
IGROV-1 = system: IGROV-1
CCRF-CEM = system: CCRF-CEM
BT-549 = system: BT-549
HOP-62 = system: HOP-62
ACHN = system: ACHN
RPMI-8226 = system: RPMI-8226
HL-60 = system: HL-60
KM12 = system: KM12
SNB-19 = system: SNB-19
SF-295 = system: SF-295
MDA-MB-231 = system: MDA-MB-231
UACC-62 = system: UACC-62
NCI-H522 = system: NCI-H522
K562 = system: K562
SW-620 = system: SW-620
Hs-578T = system: Hs-578T
MDA-N = system: MDA-N
COLO 205 = system: COLO 205
NCI-H460 = system: NCI-H460
SF-539 = system: SF-539
EKVX = system: EKVX
786-0 = system: 786-0

Compound: CC1=C(C(=O)NC(C)(C)C)CC(C(=O)NC(C)(C)C)C(C)N1 (stereo unspecified)
- GI50 (HCT-15): > 100 µM
- GI50 (PC-3): > 100 µM (inactive)
- GI50 (OVCAR-4): > 100 µM (inactive)
- GI50 (RXF 393): > 100 µM (inactive)
- GI50 (OVCAR-5): > 100 µM (inactive)
- GI50 (NCI-H226): > 100 µM (inactive)
- GI50 (M14): > 100 µM (inactive)
- GI50 (HCT-116): > 100 µM (inactive)
- GI50 (OVCAR-8): > 100 µM (inactive)
- GI50 (UACC-257): > 100 µM (inactive)
- GI50 (SK-MEL-5): > 100 µM (inactive)
- GI50 (DU-145): > 100 µM (inactive)
- GI50 (UO-31): > 100 µM (inactive)
- GI50 (SF-268): > 100 µM (inactive)
- GI50 (LOX IMVI): > 100 µM (inactive)
- GI50 (SN12C): > 100 µM (inactive)
- GI50 (OVCAR-3): > 100 µM (inactive)
- GI50 (MDA-MB-435): 93.8 µM (inactive)
- GI50 (A498): 73.1 µM (inactive)
- GI50 (NCI-H23): > 100 µM (inactive)
- GI50 (A549): > 100 µM (inactive)
- GI50 (TK-10): > 100 µM (inactive)
- GI50 (NCI/ADR-RES): > 100 µM (inactive)
- GI50 (T47D): > 100 µM (inactive)
- GI50 (HT-29): > 100 µM (inactive)
- GI50 (CAKI-1): > 100 µM (inactive)
- GI50 (SK-OV-3): > 100 µM (inactive)
- GI50 (HCC 2998): > 100 µM (inactive)
- GI50 (HOP-92): 71.1 µM (inactive)
- GI50 (MOLT-4): > 100 µM (inactive)
- GI50 (MCF7): > 100 µM (inactive)
- GI50 (SNB-75): 40.4 µM (inactive)
- GI50 (U-251): > 100 µM (inactive)
- GI50 (SK-MEL-2): > 100 µM (inactive)
- GI50 (IGROV-1): > 100 µM (inactive)
- GI50 (CCRF-CEM): 61 µM (inactive)
- GI50 (BT-549): > 100 µM (inactive)
- GI50 (HOP-62): > 100 µM (inactive)
- GI50 (ACHN): > 100 µM (inactive)
- GI50 (RPMI-8226): > 100 µM (inactive)
- GI50 (HL-60): > 100 µM (inactive)
- GI50 (KM12): > 100 µM (inactive)
- GI50 (SNB-19): 85.1 µM (inactive)
- GI50 (SF-295): > 100 µM (inactive)
- GI50 (MDA-MB-231): > 100 µM (inactive)
- GI50 (UACC-62): > 100 µM (inactive)
- GI50 (NCI-H522): > 100 µM (inactive)
- GI50 (K562): > 100 µM (inactive)
- GI50 (SW-620): > 100 µM (inactive)
- GI50 (Hs-578T): > 100 µM (inactive)
- GI50 (MDA-N): > 100 µM (inactive)
- GI50 (COLO 205): > 100 µM (inactive)
- GI50 (NCI-H460): > 100 µM (inactive)
- GI50 (SF-539): > 100 µM (inactive)
- GI50 (EKVX): > 100 µM (inactive)
- GI50 (786-0): > 100 µM (inactive)
